Entries after “also recorded” stand apart in the source; their conditions may differ.

Series [1] relates to cells. Kind of series: Combination of Notch1 inhibitor with an alternating electric field (FIGS. 4, 8). The series is classed as cell-based.
Series [2] deals with Notch1 protein. Kind of series: TTFields-mediated degradation of Notch1 protein with degradation pathway inhibitors (FIG. 11E). In kind it is cell-based. The settings on record: TTFields treatment. From the text: Reduction of Notch1 level by TTFields was also confirmed by immunofluorescence staining (FIGS. 11C and D). The intracellular protein degradation mechanism primarily involves proteasomal and lysosomal degradation pathways. To further elucidate the mechanism of TTFields-mediated degradation of Notch1 protein, lysosomal inhibitor Leupeptin and proteasomal inhibitor MG132 were employed (FIG. 11E). […] Lysosomal degradation of proteins, particularly those located on cell membrane such as Notch1, often involves cell membrane.
Protein levels were evaluated through Western Blot analysis, following the established protocol. The antibodies employed in the study are listed below. Rabbit notch1 (Abcam, ab52627), Rabbit Cleaved Notch1 (CST, 4147S), Mouse anti-GAPDH (Abclonal, A19056), Rabbit anti-Tubulin (Abclonal, AC015), Rabbit anti-Hes1 (ab108937), rabbit anti-Hes5 (Abclonal A16237), rabbit anti-Hey1 (Abclonal A16110), rabbit anti-Myc (Selleck, A5011), anti-rabbit CD133 (Abcam, ab19898), anti-mouse Sox2 (Abcam, ab79351), anti-Rabbit Nestin (Abcam), and Anti-mouse lamp1.

The test system of series [3] is U251. Kind of series: Cell viability of glioblastoma cell line U251 (FIGS. 6, 7). The series is classed as cell-based. Here is the method:
(§1) For short-term experiments, such as detecting the degradation process of glioblastoma cells under TTFields, U87, U251, LN229, and T98 cell suspensions (450 μL, 100,000 cells per well) were evenly spread on 24 mm cell culture slides. After overnight incubation, the cells were transferred to in vitro dishes and supplemented with 2 mL fresh culture medium. The treatment frequency was 200 kHz, with a treatment field strength of 1.62 V/cm RMS, for a duration of 24 hours. For long-term combination experiments, involving the combined use of RO4929097 or Notch1 gene knockdown with TTFields, cells (450 μL, 40,000 cells per well) were treated with a field strength of 1.19 V/cm RMS and a frequency of 200 kHz for 72 hours. The concentration of RO4929097 drug was varied. For organoid experiments, 3-5 GBOs were added to each well, and fresh GBO medium was replaced. The treatment field strength was 1.19 V/cm RMS, with a frequency of 200 kHz, for treatment durations of 24 and 48 hours.

The test system of series [4] is glioma cell lines including U87, U251, and LN229. Kind of series: Validation assays with TTFields in glioma cell lines (EdU incorporation, cell counting; FIGS. 10A-C). The series is classed as cell-based. Here is the method: It was first analyzed whether Notch1 antagonization sensitized glioma cell lines to TTFields treatment. Validation assays were conducted across multiple glioma cell lines including U87, U251, and LN229. The Notch1 inhibitor RO4929097 was used to probe whether it synergizes with TTFields. […] In the validation assays, experimental cohorts were divided into four groups: control (DMSO), TTFields treatment alone, Notch1 inhibitor RO4929097, and TTFields plus RO4929097.
as §1

Series [5] concerns glioma cells. Nature of the series: Sensitization of glioma cells to temozolomide (FIGS. 7, 10E). In kind it is cell-based. Conditions: Notch1 inhibitor in combination with temozolomide.
In series [6] the test system is glioma cells. Kind of series: Clonogenic (colony formation) assay after treatment (FIGS. 5, 10D). The series is classed as cell-based. The protocol:
as §1, with “48 hours. Following treatment with TTFields and corresponding conditions, 500-1000 cells were selected from each group and seeded in 6-well dishes. The cells were cultured at 37 degrees Celsius with 5% CO2 for a period of 7-10 days, with medium replacement every 3 days. […]” for “48 hours.”

Series [7] has as its system glioblastoma. Conditions: cited from earlier work.
Series [8] relates to patient-derived glioblastoma organoids (GBOs). Kind of series: EdU staining of patient-derived glioblastoma organoids with TTFields (FIG. 13I). The series is classed as cell-based. Here is the method:
as §1

Series [9] deals with U87. Nature of the series: Cell viability of glioblastoma cell line U87 (FIGS. 6, 7). The series is classed as cell-based. The protocol: as §1
Where [10] appears, read: 5 μM Notch1 inhibitor alone, FIG. 6.
The mark [11] stands for this setting: 5 μM Notch1 inhibitor alone, FIG. 7.
[12] abbreviates: 20 μM Notch1 inhibitor alone, FIG. 6.
[13] abbreviates: 20 μM Notch1 inhibitor alone, FIG. 7.
Where [14] appears, read: 250 μM Temozolomide and 5 μM Notch1 inhibitor concomitant, FIG. 7.
Where [15] appears, read: 250 μM Temozolomide and 20 μM Notch1 inhibitor concomitant, FIG. 7.
The mark [16] stands for this setting: TTFields and 5 μM Notch1 inhibitor concomitant, FIG. 6.
Setting [17] is: TTFields and 20 μM Notch1 inhibitor concomitant, FIG. 6.
Where [18] appears, read: phase I and II clinical trials for glioblastoma.

For `C[C@H](NC(=O)Cc1cc(F)cc(F)c1)C(=O)N[C@H](C(=O)OC(C)(C)C)c1ccccc1` [DAPT], in series [1] (DAPT combined with an alternating electric field, FIG. 8), the “therapeutic efficacy of the alternating electric field” value is listed as “enhances the therapeutic efficacy”.

Take `CC(=O)N[C@@H](CC(C)C)C(=O)N[C@@H](CC(C)C)C(=O)N[C@H](C=O)CCCNC(=N)N` [Leupeptin]: in [2], the “effect on TTFields-induced degradation of Notch1 protein” value is given as “blocked”.

As a reminder, the cell viability is a per cent measure of how many cells are alive, often set against a control. In the case of `CC(C)(C(=O)NCC(F)(F)C(F)(F)F)C(=O)N[C@@H]1C(=O)Nc2ccccc2-c2ccccc21` [RO4929097], the cell viability result in series [3] (setting [10]) was “no change in viability”; in [3] (setting [11]), “no change in viability”; in [3] (setting [12]), “around 60%”; in [3] (setting [13]) it was “around 80%”; in series [3] (setting [14]), “no change in viability”; in [3] (setting [15]) it was “no change in viability”. The cell viability is 20% in [3] (setting [16]); 20% in [3] (setting [17]); 80% in [9] (setting [10]); “no change in viability” in [9] (setting [11]); “around 60%” in [9] (setting [12]); “around 80%” in series [9] (setting [13]). In addition, the cell viability result in series [9] (setting [14]) was “no change in viability”; in series [9] (setting [15]) it was “no change in viability”; in [9] (setting [16]), 20%; in [9] (setting [17]), 20%. Besides, the “cytotoxicity in EdU incorporation assays” value in [4] (RO4929097 alone, FIGS. 10A and B) was “minimal cytotoxicity”. Further, in series [4] (RO4929097 combined with TTFields, FIGS. 10A and B), the “therapeutic sensitization in EdU incorporation assays” value was “noticeable enhancement in therapeutic sensitization”. Further, in series [4] (combined with TTFields, FIG. 10 legend), the “growth suppression by TTFields” value was “enhances growth suppression”. Also, the “sensitization to / killing by temozolomide (TMZ)” value in series [5] is listed as “did not sensitize”; in [5] (listed as Notch1 inhibitor), “no effect”; in series [5] (listed as RO), “does not enhance killing”. For the same molecule, the “colonogenic abilities following re-seeding after treatment” value in series [6] (Notch1 inhibitor alone, FIG. 5) is “no significant impact”. The “clonogenic ability / long-term proliferative potential” value in [6] (Notch1 inhibitor combined with TTFields / alternating electric field, re-seeding after treatment) is recorded as “synergy; also recorded: sensitization effect”. Further, the safety profile entry in series [7] (glioblastoma / recurrent GB patients) is “favorable safety profile”. In addition, the blood-brain barrier penetration entry in series [7] (setting [18]) was “favorable blood-brain barrier penetration”. The “expression of Notch1 downstream genes in tumor cells” value in series [7] (setting [18]) is recorded as “reduce expression of Notch1 downstream genes”. The “cytotoxicity by Edu staining in GBOs” value in [8] (Notch1 inhibitor alone) is recorded as “no apparent cytotoxicity”. For the same molecule, the “effect with TTFields by Edu staining in GBOs” value in series [8] (combined with TTFields) was “clear synergistic effect”. For the same molecule, in series [1] (RO4929097 combined with an alternating electric field, low-intensity, long duration, FIGS. 4 and 5), the “sensitization of alternating electric field therapy” value is on record as “sensitizes alternating electric field therapy”.

The viability is the share of living cells, or the viability signal relative to a control. `Cn1nnc2c(C(N)=O)ncn2c1=O` [Temozolomide]: the viability at 250 µM in series [3] (Homo sapiens, U-251, 250 μM Temozolomide alone, FIG. 7) is 75%; in series [9] (Homo sapiens, U-87 MG, 250 μM Temozolomide alone, FIG. 7), 75%.
